According to patent publication US20150368297A1, “Novel Peptide Compound for Inhibiting Restenosis and Promoting Re-Endothelialization and Method for Preparing the Same” (Chonnam National University Hospital, priority 2014, published 2015):

Tested on: vascular smooth muscle cell (SMC)
Experiment: Effect on proliferation of vascular smooth muscle cell (SMC), XTT assay
Format: cell-based
Conditions: 1 uM compound; measured at 1, 4 and 7 days; versus non-treated control; FIG. 1
Description: As cells used in a cell culture, the vascular smooth muscle cell (SMC) which is a smooth muscle cell, and the human umbilical vein endothelial cell (HUVEC) which is the cell for promoting vascular re-endothelialization were purchased from Korea Cell Line Bank, respectively. The cell culture was performed by culturing the vascular smooth muscle cell (SMC) and the human umbilical vein endothelial cell (HUVEC) in Dulbecoco's modified eagle medium (DMEM) with 10% fetal bovine serum (FBS) under conditions of 37° C. and 5% CO2. […]
(§1) 5×10^4 of SMC cells cultured according to Example 2 were cultured in the 24-well cell culture plate and then treated with 1 uM of the peptide compound prepared by Example 2 (hereinafter, referred to as ‘EVR-P’). […] After the reaction, 200 ul of the culture medium was transferred from each well to a 96 well cell culture dish, and degree of color change was measured from absorbance at a 450 nm wavelength by a spectroscopy.
as §1, with “the known Everolimus (EVR)(LC Laboratories).” for “the peptide compound prepared by Example 2 (hereinafter, referred to as ‘EVR-P’).”, “to the” for “to a”

CO[C@H]1C[C@@H]2CC[C@@H](C)[C@@](O)(O2)C(=O)C(=O)N2CCCC[C@H]2C(=O)O[C@H]([C@H](C)C[C@@H]2CC[C@@H](OCCO)[C@H](OC)C2)CC(=O)[C@H](C)/C=C(\C)[C@@H](O)[C@@H](OC)C(=O)[C@H](C)C[C@H](C)/C=C/C=C/C=C/1C [EVR, Everolimus]
SMC cell proliferation (XTT, absorbance at 450 nm): cell proliferation was inhibited
